Experimental data taken from PubChem BioAssay (NCI).
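A five-concentration, 48-hour dose response in 96-well plates underlies each endpoint, interpolated linearly between surrounding concentrations. Here, GI50 denotes the concentration required for 50% inhibition of growth. At the TGI there is no net growth.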

What was measured:
Assay in all cases: growth of human tumour cells (NCI), 48 h; in the data active = GI50 below about 0.43 µM; inactive = the rest
[1] = tested on: SW-620 colon
[2] = tested on: SN12C renal
[3] = tested on: M14 melanoma
[4] = tested on: TK-10 renal
[5] = tested on: HCC-2998 colon
[6] = tested on: COLO 205 colon
[7] = tested on: 786-0 renal
[8] = tested on: UACC-257 melanoma
[9] = tested on: CAKI-1 renal
[10] = tested on: MDA-MB-435
[11] = tested on: HCT-15 colon
[12] = tested on: HCT-116 colon
[13] = tested on: HOP-92 NSCLC
[14] = tested on: HT29 colon
[15] = tested on: KM12 colon
[16] = tested on: SF-295 CNS
[17] = tested on: MOLT-4 leukemia
[18] = tested on: MALME-3M melanoma
[19] = tested on: A549 NSCLC
[20] = tested on: T-47D breast
[21] = tested on: EKVX NSCLC
[22] = tested on: SF-539 CNS
[23] = tested on: K-562 leukemia
[24] = tested on: RXF 393 renal
[25] = tested on: UACC-62 melanoma
[26] = tested on: CCRF-CEM leukemia
[27] = tested on: OVCAR-4 ovarian
[28] = tested on: SNB-75 CNS
[29] = tested on: MCF7 breast
[30] = tested on: PC-3 prostate
[31] = tested on: HOP-62 NSCLC
[32] = tested on: ACHN renal
[33] = tested on: SF-268 CNS
[34] = tested on: OVCAR-8 ovarian
[35] = tested on: HS 578T breast
[36] = tested on: A498 renal
[37] = tested on: SK-MEL-28 melanoma
[38] = tested on: SR leukemia
[39] = tested on: HL-60(TB) leukemia
[40] = tested on: MDA-MB-231 breast
[41] = tested on: OVCAR-3 ovarian
[42] = tested on: SK-OV-3 ovarian
[43] = tested on: SK-MEL-2 melanoma
[44] = tested on: SK-MEL-5 melanoma
[45] = tested on: OVCAR-5 ovarian
[46] = tested on: NCI-H226 lung
[47] = tested on: U251 CNS
[48] = tested on: IGROV1 ovarian
[49] = tested on: UO-31 renal
[50] = tested on: NCI/ADR-RES ovarian
[51] = tested on: SNB-19 CNS
[52] = tested on: LOX IMVI melanoma
[53] = tested on: BT-549 breast
[54] = tested on: NCI-H460 lung
[55] = tested on: NCI-H23 lung
[56] = tested on: DU-145 prostate
[57] = tested on: NCI-H522 lung
[58] = tested on: RPMI-8226 leukemia

COc1ccc2c(c1)C(=O)/C(=C/c1cccc(OCC(=O)Nc3nc4c(s3)CCCC4)c1)O2
0.681 µM: TGI [39]
19.4 µM: TGI [44]
2.86 µM: TGI [18]
4.09 µM: TGI [15]
8.71 µM: TGI [34]
2.07 µM: TGI [1]
5.38 µM: TGI [40]
12 µM: TGI [28]
1.34 µM: TGI [43]
8.73 µM: TGI [21]
9.42 µM: TGI [10]
4.49 µM: TGI [53]
3.22 µM: TGI [37]
18.5 µM: TGI [19]
18.4 µM: TGI [25]
0.372 µM: TGI [13]
0.804 µM: TGI [9]
6.81 µM: TGI [2]
0.066 µM: TGI [52]
42.1 µM: TGI [46]
0.346 µM: TGI [7]
5.62 µM: TGI [55]
10.1 µM: TGI [35]
> 23 µM: TGI [23]
1.01 µM: TGI [30]
1.08 µM: TGI [33]
13.4 µM: TGI [54]
> 100 µM: TGI [17] | TGI [26]
25.1 µM: TGI [42]
3.19 µM: TGI [11]
active: GI50 [7] 0.15 µM | GI50 [9] 0.383 µM | GI50 [13] 0.18 µM | GI50 [30] 0.285 µM | GI50 [31] 0.29 µM | GI50 [33] 0.314 µM | GI50 [38] 0.156 µM | GI50 [39] 0.241 µM | GI50 [41] 0.304 µM | GI50 [48] < 0.0153 µM | GI50 [49] 0.0544 µM | GI50 [52] 0.0248 µM
24.4 µM: TGI [8]
0.101 µM: TGI [49]
2.02 µM: TGI [6]
2.79 µM: TGI [32]
10.4 µM: TGI [31]
inactive: GI50 [1] 0.805 µM | GI50 [2] 1.63 µM | GI50 [3] 1.81 µM | GI50 [4] 0.45 µM | GI50 [5] 1.83 µM | GI50 [6] 0.729 µM | GI50 [8] 11.2 µM | GI50 [10] 2.59 µM | GI50 [11] 1.54 µM | GI50 [12] 1.13 µM | GI50 [14] 0.642 µM | GI50 [15] 0.72 µM | GI50 [16] 3.7 µM | GI50 [17] 0.93 µM | GI50 [18] 0.8 µM | GI50 [19] 3.31 µM | GI50 [20] 1.93 µM | GI50 [21] 2.52 µM | GI50 [22] 1.32 µM | GI50 [23] 1 µM | GI50 [24] 0.583 µM | GI50 [25] 5.23 µM | GI50 [26] 0.863 µM | GI50 [27] 2.57 µM | GI50 [28] 1.75 µM | GI50 [29] 2.83 µM | GI50 [32] 1.47 µM | GI50 [34] 1.3 µM | GI50 [35] 2.28 µM | GI50 [36] 14.3 µM | GI50 [37] 1.58 µM | GI50 [40] 1.18 µM | GI50 [42] 11.8 µM | GI50 [43] 0.577 µM | GI50 [44] 6.08 µM | GI50 [45] 1.69 µM | GI50 [46] 11.3 µM | GI50 [47] 0.772 µM | GI50 [50] 2.12 µM | GI50 [51] 13.9 µM | GI50 [53] 1.74 µM | GI50 [54] 3.48 µM | GI50 [55] 0.636 µM | GI50 [56] 0.499 µM | GI50 [57] 0.704 µM
0.934 µM: TGI [4]
2.25 µM: TGI [57]
15.8 µM: TGI [16]
27.7 µM: TGI [36]
30.4 µM: TGI [51]
3.61 µM: TGI [45]
11.8 µM: TGI [29]
1.8 µM: TGI [14]
3.44 µM: TGI [5]
2.69 µM: TGI [22]
4.51 µM: TGI [3]
1.58 µM: TGI [24]
0.054 µM: TGI [48]
1.22 µM: TGI [56]
0.865 µM: TGI [41]
2.34 µM: TGI [12]
6.37 µM: TGI [50]
0.351 µM: TGI [38]
8.52 µM: TGI [27]
4.34 µM: TGI [20]
4.97 µM: TGI [47]

Cn1nccc1Nc1nccc(-c2cc3c(s2)C(C)(C)N(CCN2CCOCC2)C3=O)n1
> 85.3 µM: TGI [24]
> 86.2 µM: TGI [42]
58 µM: TGI [44]
6.74 µM: TGI [43]
> 77.7 µM: TGI [20]
> 100 µM: TGI [1] | TGI [2] | TGI [4] | TGI [5] | TGI [6] | TGI [7] | TGI [8] | TGI [9] | TGI [10] | TGI [11] | TGI [12] | TGI [14] | TGI [15] | TGI [16] | TGI [17] | TGI [18] | TGI [19] | TGI [21] | TGI [22] | TGI [23] | TGI [25] | TGI [58] | TGI [26] | TGI [27] | TGI [28] | TGI [29] | TGI [30] | TGI [31] | TGI [32] | TGI [33] | TGI [34] | TGI [35] | TGI [37] | TGI [38] | TGI [40] | TGI [41] | TGI [45] | TGI [46] | TGI [47] | TGI [48] | TGI [49] | TGI [50] | TGI [51] | TGI [52] | TGI [54] | TGI [55] | TGI [56] | TGI [57]
active: GI50 [3] 0.312 µM | GI50 [6] 0.159 µM | GI50 [8] 0.301 µM | GI50 [14] 0.277 µM | GI50 [18] 0.183 µM | GI50 [25] 0.274 µM | GI50 [37] 0.348 µM | GI50 [43] 0.402 µM
78 µM: TGI [39]
99.8 µM: TGI [53]
inactive: GI50 [1] 1.22 µM | GI50 [2] 17.1 µM | GI50 [4] 1.31 µM | GI50 [5] 0.602 µM | GI50 [7] 14.7 µM | GI50 [9] 6.66 µM | GI50 [10] 0.852 µM | GI50 [11] 16.9 µM | GI50 [12] 0.594 µM | GI50 [15] 7.86 µM | GI50 [16] > 89.9 µM | GI50 [17] 25.7 µM | GI50 [19] 5.27 µM | GI50 [20] 17.4 µM | GI50 [21] 3.1 µM | GI50 [22] 27.9 µM | GI50 [23] 11.7 µM | GI50 [24] 4.73 µM | GI50 [58] 23.3 µM | GI50 [26] 23.4 µM | GI50 [27] 24 µM | GI50 [28] 15.9 µM | GI50 [29] 24.1 µM | GI50 [30] 28.8 µM | GI50 [31] 7.53 µM | GI50 [32] 9.53 µM | GI50 [33] 27.8 µM | GI50 [34] 24.3 µM | GI50 [35] 15.9 µM | GI50 [36] 0.659 µM | GI50 [38] 23 µM | GI50 [39] 0.499 µM | GI50 [40] 2.8 µM | GI50 [41] 27.2 µM | GI50 [42] 17 µM | GI50 [44] 1.31 µM | GI50 [45] 0.498 µM | GI50 [46] 20.2 µM | GI50 [47] 33.7 µM | GI50 [48] 2.15 µM | GI50 [49] 3.76 µM | GI50 [50] 56 µM | GI50 [51] 41.9 µM | GI50 [52] 0.734 µM | GI50 [53] 19 µM | GI50 [54] 21.4 µM | GI50 [55] 0.858 µM | GI50 [56] 25.8 µM | GI50 [57] 14.9 µM
> 37.4 µM: TGI [3]
5.99 µM: TGI [36]
